{
  "source": "patent US20140120087A1",
  "about": "“TRIAZOLOPYRIDINES” (BAYER INTELLECTUAL PROPERTY GMBH, priority 2011, published 2014)",
  "key": {"Mps-1 kinase [1]": {"target": "T1, Mps-1 kinase (Homo sapiens, UniProt P33981)", "T1 sequence (P33981 1-857)": "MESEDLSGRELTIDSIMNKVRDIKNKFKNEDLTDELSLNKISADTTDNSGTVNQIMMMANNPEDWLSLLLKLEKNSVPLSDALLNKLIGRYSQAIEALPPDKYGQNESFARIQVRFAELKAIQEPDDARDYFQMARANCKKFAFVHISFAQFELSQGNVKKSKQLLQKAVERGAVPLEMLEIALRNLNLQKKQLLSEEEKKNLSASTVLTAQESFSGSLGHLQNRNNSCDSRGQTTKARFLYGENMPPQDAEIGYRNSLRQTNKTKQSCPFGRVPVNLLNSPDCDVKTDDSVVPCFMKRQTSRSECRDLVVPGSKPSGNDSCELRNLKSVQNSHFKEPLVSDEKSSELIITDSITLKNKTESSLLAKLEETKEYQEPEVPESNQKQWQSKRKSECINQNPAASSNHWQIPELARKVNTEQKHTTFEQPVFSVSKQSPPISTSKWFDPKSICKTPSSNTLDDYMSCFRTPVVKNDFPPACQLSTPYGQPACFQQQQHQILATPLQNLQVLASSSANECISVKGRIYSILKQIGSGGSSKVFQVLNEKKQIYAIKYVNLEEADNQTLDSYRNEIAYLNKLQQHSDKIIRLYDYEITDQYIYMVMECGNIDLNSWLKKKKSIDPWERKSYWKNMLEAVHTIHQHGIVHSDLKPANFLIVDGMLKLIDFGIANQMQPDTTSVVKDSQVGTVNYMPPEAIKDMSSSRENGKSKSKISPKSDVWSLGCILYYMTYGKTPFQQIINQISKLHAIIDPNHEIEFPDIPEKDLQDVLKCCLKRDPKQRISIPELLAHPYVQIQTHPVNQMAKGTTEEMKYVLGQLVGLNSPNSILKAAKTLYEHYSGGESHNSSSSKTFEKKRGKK", "experiment": "Mps-1 kinase assay with 2 mM ATP (TR-FRET)"}, "[2]": {"experiment": "Hydrolytic stability assay at pH 2", "type": "physicochemical", "conditions": "buffer pH 2, 37° C., compounds of the invention", "summary_of_the_method": "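Compound from a 10 mM DMSO stock was diluted in acetonitrile, added to pH 2 buffer and incubated at 37° C. HPLC injections were made at time zero and after 1, 2 and 24 hrs. Decay (%) was calculated from peak areas relative to the time-zero injection.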"}, "Mps-1 kinase [3]": {"target": "T1, Mps-1 kinase", "experiment": "Mps-1 kinase assay with 10 μM ATP (TR-FRET)"}},
  "data": [
    {"smiles": "CCNC(=O)c1ccc(Nc2nc3ccc(-c4ccc(C(=O)NCc5ccc(F)cc5)cc4)cn3n2)c(OC)c1", "note": "[Example 02.20, N-ethyl-4-[(6-{4-[(4-fluorobenzyl)carbamoyl]phenyl}[1,2,4]triazolo[1,5-α]-pyridin-2-yl)amino]-3-methoxybenzamide]", "values": [
      {"measurement": "IC50", "setting": "Mps-1 kinase [1]", "result": 1.7, "unit": "nM"},
      {"measurement": "Hydrolysis at pH 2; Decay in % after 24 h", "setting": "[2]", "result": "<10", "unit": "%"},
      {"measurement": "IC50", "setting": "Mps-1 kinase [3]", "result": "≤ 1", "unit": "nM"}
    ]},
    {"smiles": "CCOc1cc(C(=O)NC(C)(C)C)ccc1Nc1nc2ccc(-c3ccc(C(=O)NCc4ccc(F)cc4)cc3)cn2n1", "note": "[Example 02.21, N-tert-butyl-3-ethoxy-4-[(6-{4-[(4-fluorobenzyl)carbamoyl]phenyl}[1,2,4]-triazolo[1,5-α]pyridin-2-yl)amino]benzamide]", "values": [
      {"measurement": "IC50", "setting": "Mps-1 kinase [1]", "result": 2.4, "unit": "nM"},
      {"measurement": "Hydrolysis at pH 2; Decay in % after 24 h", "setting": "[2]", "result": "<10", "unit": "%"},
      {"measurement": "IC50", "setting": "Mps-1 kinase [3]", "result": "≤ 1", "unit": "nM"}
    ]},
    {"smiles": "CC(C)(O)CNC(=O)c1ccc(Nc2nc3ccc(-c4ccc(C(=O)NCc5ccc(F)cc5)cc4)cn3n2)c(OCC(F)(F)F)c1", "note": "[Example 02.22, 4-[(6-{4-[(4-fluorobenzyl)carbamoyl]phenyl}[1,2,4]triazolo[1,5-α]pyridin-2-yl)amino]-N-(2-hydroxy-2-methylpropyl)-3-(2,2,2-trifluoroethoxy)benzamide]", "values": [
      {"measurement": "IC50", "setting": "Mps-1 kinase [1]", "result": "≤ 1", "unit": "nM"},
      {"measurement": "Hydrolysis at pH 2; Decay in % after 24 h", "setting": "[2]", "result": "<10", "unit": "%"},
      {"measurement": "IC50", "setting": "Mps-1 kinase [3]", "result": "≤ 1", "unit": "nM"}
    ]},
    {"smiles": "O=C(NCc1ccc(F)cc1)c1ccc(-c2ccc3nc(Nc4ccc(C(=O)NCC(F)(F)F)cc4OCC(F)(F)F)nn3c2)cc1", "note": "[Example 02.23, 4-[(6-{4-[(4-fluorobenzyl)carbamoyl]phenyl}[1,2,4]triazolo[1,5-α]pyridin-2-yl)amino]-3-(2,2,2-trifluoroethoxy)-N-(2,2,2-trifluoroethyl)benzamide]", "values": [
      {"measurement": "IC50", "setting": "Mps-1 kinase [1]", "result": "≤ 1", "unit": "nM"},
      {"measurement": "Hydrolysis at pH 2; Decay in % after 24 h", "setting": "[2]", "result": "<10", "unit": "%"},
      {"measurement": "IC50", "setting": "Mps-1 kinase [3]", "result": "≤ 1", "unit": "nM"}
    ]},
    {"smiles": "Cc1cc(N(C)C)ccc1Nc1nc2ccc(-c3ccc(C(=O)NCc4ccc(F)cc4)cc3)cn2n1", "note": "[Example 02.24, 4-(2-{[4-(dimethylamino)-2-methylphenyl]amino}[1,2,4]triazolo[1,5-α]-pyridin-6-yl)-N-(4-fluorobenzyl)benzamide]", "values": [
      {"measurement": "IC50", "setting": "Mps-1 kinase [1]", "result": 5.9, "unit": "nM"},
      {"measurement": "Hydrolysis at pH 2; Decay in % after 24 h", "setting": "[2]", "result": "<10", "unit": "%"},
      {"measurement": "IC50", "setting": "Mps-1 kinase [3]", "result": "≤ 1", "unit": "nM"}
    ]},
    {"smiles": "COc1cc(C(=O)NC(C)(C)CO)ccc1Nc1nc2ccc(-c3ccc(C(=O)NCc4ccc(F)cc4)c(F)c3)cn2n1", "note": "[Example 03.1, 2-fluoro-N-(4-fluorobenzyl)-4-[2-({4-[(1-hydroxy-2-methylpropan-2-yl)-carbamoyl]-2-methoxyphenyl}amino)[1,2,4]triazolo[1,5-α]pyridin-6-yl]-benzamide]", "values": [
      {"measurement": "IC50", "setting": "Mps-1 kinase [1]", "result": 6.9, "unit": "nM"},
      {"measurement": "Hydrolysis at pH 2; Decay in % after 24 h", "setting": "[2]", "result": "<10", "unit": "%"},
      {"measurement": "IC50", "setting": "Mps-1 kinase [3]", "result": "≤ 1", "unit": "nM"}
    ]},
    {"smiles": "COc1cc(C(=O)NC(C)(C)CO)ccc1Nc1nc2ccc(-c3ccc(C(=O)NCc4ccc(F)cc4)c(C)c3)cn2n1", "note": "[Example 04.1, N-(4-fluorobenzyl)-4-[2-({4-[(1-hydroxy-2-methylpropan-2-yl)carbamoyl]-2-methoxyphenyl}amino)[1,2,4]triazolo[1,5-α]pyridin-6-yl]-2-methylbenz-amide]", "values": [
      {"measurement": "IC50", "setting": "Mps-1 kinase [1]", "result": 16, "unit": "nM"},
      {"measurement": "Hydrolysis at pH 2; Decay in % after 24 h", "setting": "[2]", "result": "<10", "unit": "%"},
      {"measurement": "IC50", "setting": "Mps-1 kinase [3]", "result": "≤ 1", "unit": "nM"}
    ]},
    {"smiles": "CCOc1cc(C(=O)N(CC)CCOC)ccc1Nc1nc2ccc(-c3ccc(C(=O)NCC4CC4)cc3)cn2n1", "note": "[Example 06.2, 4-[(6-{4-[(cyclopropylmethyl)carbamoyl]phenyl}[1,2,4]triazolo[1,5-α]-pyridin-2-yl)amino]-3-ethoxy-N-ethyl-N-(2-methoxyethyl)benzamide]", "values": [
      {"measurement": "IC50", "setting": "Mps-1 kinase [1]", "result": 26, "unit": "nM"},
      {"measurement": "Hydrolysis at pH 2; Decay in % after 24 h", "setting": "[2]", "result": "<10", "unit": "%"},
      {"measurement": "IC50", "setting": "Mps-1 kinase [3]", "result": 1.4, "unit": "nM"}
    ]},
    {"smiles": "CCOc1cc(C(=O)NCCO)ccc1Nc1nc2ccc(-c3ccc(C(=O)NCC4CC4)cc3)cn2n1", "note": "[Example 06.3, 4-[(6-{4-[(cyclopropylmethyl)carbamoyl]phenyl}[1,2,4]triazolo[1,5-α]-pyridin-2-yl)amino]-3-ethoxy-N-(2-hydroxyethyl)benzamide]", "values": [
      {"measurement": "IC50", "setting": "Mps-1 kinase [1]", "result": 21, "unit": "nM"},
      {"measurement": "Hydrolysis at pH 2; Decay in % after 24 h", "setting": "[2]", "result": "<10", "unit": "%"},
      {"measurement": "IC50", "setting": "Mps-1 kinase [3]", "result": "≤ 1", "unit": "nM"}
    ]},
    {"smiles": "O=C(NCCO)c1ccc(Nc2nc3ccc(-c4ccc(C(=O)NCC5CC5)cc4)cn3n2)c(OCC(F)(F)F)c1", "note": "[Example 06.4, 4-[(6-{4-[(cyclopropylmethyl)carbamoyl]phenyl}[1,2,4]triazolo[1,5-α]-pyridin-2-yl)amino]-N-(2-hydroxyethyl)-3-(2,2,2-trifluoroethoxy)benzamide]", "values": [
      {"measurement": "IC50", "setting": "Mps-1 kinase [1]", "result": 11, "unit": "nM"},
      {"measurement": "Hydrolysis at pH 2; Decay in % after 24 h", "setting": "[2]", "result": "<10", "unit": "%"},
      {"measurement": "IC50", "setting": "Mps-1 kinase [3]", "result": "≤ 1", "unit": "nM"}
    ]},
    {"smiles": "CCNC(=O)c1ccc(Nc2nc3ccc(-c4ccc(C(=O)NCC5CC5)cc4)cn3n2)c(OCC(F)(F)F)c1", "note": "[Example 06.5, 4-[(6-{4-[(cyclopropylmethyl)carbamoyl]phenyl}[1,2,4]triazolo[1,5-α]-pyridin-2-yl)amino]-N-ethyl-3-(2,2,2-trifluoroethoxy)benzamide]", "values": [
      {"measurement": "IC50", "setting": "Mps-1 kinase [1]", "result": 19, "unit": "nM"},
      {"measurement": "Hydrolysis at pH 2; Decay in % after 24 h", "setting": "[2]", "result": "<10", "unit": "%"},
      {"measurement": "IC50", "setting": "Mps-1 kinase [3]", "result": "≤ 1", "unit": "nM"}
    ]},
    {"smiles": "CCNC(=O)c1ccc(Nc2nc3ccc(-c4ccc(C(=O)NCc5cccc(F)c5)cc4)cn3n2)c(OC)c1", "note": "[Example 07.1, N-ethyl-4-[(6-{4-[(3-fluorobenzyl)carbamoyl]phenyl}[1,2,4]triazolo[1,5-α]-pyridin-2-yl)amino]-3-methoxybenzamide]", "values": [
      {"measurement": "IC50", "setting": "Mps-1 kinase [1]", "result": 14, "unit": "nM"},
      {"measurement": "Hydrolysis at pH 2; Decay in % after 24 h", "setting": "[2]", "result": "<10", "unit": "%"},
      {"measurement": "IC50", "setting": "Mps-1 kinase [3]", "result": "≤ 1", "unit": "nM"}
    ]},
    {"smiles": "COc1cc(C(=O)NC(C)(C)CO)ccc1Nc1nc2ccc(-c3ccc(C(=O)NCc4ccc(F)cc4)c(OC)c3)cn2n1", "note": "[Example 08.1, N-(4-fluorobenzyl)-4-[2-({4-[(1-hydroxy-2-methylpropan-2-yl)carbamoyl]-2-methoxyphenyl}amino)[1,2,4]triazolo[1,5-α]pyridin-6-yl]-2-methoxybenz-amide]", "values": [
      {"measurement": "IC50", "setting": "Mps-1 kinase [1]", "result": 4.3, "unit": "nM"},
      {"measurement": "Hydrolysis at pH 2; Decay in % after 24 h", "setting": "[2]", "result": "<10", "unit": "%"},
      {"measurement": "IC50", "setting": "Mps-1 kinase [3]", "result": "≤ 1", "unit": "nM"}
    ]}
  ]
}
